Data from patent publication US5525599A, “7-substituted-amino-3-substituted-3-cephem-4-carboxylic acids” (Eli Lilly and Company, priority 1993, dated 1996).
≈ marks a conversion by molar mass, not a printed value. Where two headings read alike, the source gives them in different places.

Experiments:
[1] = system: Enter. faecalis (2041); experiment: In vitro activity (MIC), agar dilution method; format: cell-based; details: Enterococcus faecalis; Enter. faecalis (2041), agar dilution; read-out: MIC
Procedure: (§1) Cephalosporins 9a-o were assayed against a broad array of Gram-positive and Gram-negative bacteria in Mueller-Hinton agar by the 2-fold serial dilution method, (Kirst, H. A.; J. Antibiot. 1982, 35, 1675).
(§2) Test compounds were diluted to an appropriate range of concentrations in 0.1M phosphate buffer (pH 7), incorporated into Mueller-Hinton agar (difco) supplemented with 1% Bacto-Supplement C (Difco) at 50° C. and allowed to solidify in petri dishes. Fresh overnight cultures of test bacteria were diluted to approximately 1×10^4 cells/mL aand applied in […] to the surface of the agar plates. The inoculated plates were incubated overnight at 35° C. in ambient air. MIC endpoints were recorded as the lowest antibiotic concentrations that inhibited the development of visible bacterial growth on the plates.

[2] = system: Strept. pyogenes (C203); experiment: In vitro activity (MIC), agar dilution method; format: cell-based; details: Streptococcus pyogenes; Strept. pyogenes (C203), agar dilution; read-out: MIC
Procedure: as §1, §2

[3] = system: E. coli (EC14); experiment: In vitro activity (MIC), agar dilution method; format: cell-based; details: Escherichia coli
Procedure: as §1, §2

[4] = system: K. pneumonia (KAE); experiment: In vitro activity (MIC), agar dilution method; format: cell-based; details: Klebsiella pneumoniae
Procedure: as §1, §2

[5] = system: Staph. aureus (X400); experiment: In vitro activity (MIC), agar dilution method; format: cell-based; details: Staphylococcus aureus; Staph. aureus (X400), methicillin-resistant strain, agar dilution; read-out: MIC
Procedure: as §1, §2

[6] = system: Staph. epiderm. (222); experiment: In vitro activity (MIC), agar dilution method; format: cell-based; details: Staphylococcus epidermidis; Staph. epiderm. (222), methicillin-resistant strain, agar dilution; read-out: MIC
Procedure: as §1, §2

[7] = system: K. pneumonia (X26); experiment: In vitro activity (MIC), agar dilution method; format: cell-based; details: Klebsiella pneumoniae; K. pneumonia (X26), agar dilution; read-out: MIC
Procedure: as §1, §2

[8] = system: Staph. aureus (V41); experiment: In vitro activity (MIC), agar dilution method; format: cell-based; details: Staphylococcus aureus; Staph. aureus (V41), agar dilution; read-out: MIC
Procedure: as §1, §2

[9] = system: Enter. faecium (X66); experiment: In vitro activity (MIC), agar dilution method; format: cell-based; details: Enterococcus faecium; Enter. faecium (X66), agar dilution; read-out: MIC
Procedure: as §1, §2

[10] = system: Staph. aureus (X1.1); experiment: In vitro activity (MIC), agar dilution method; format: cell-based; details: Staphylococcus aureus; Staph. aureus (X1.1), agar dilution; read-out: MIC
Procedure: as §1, §2

[11] = system: E. coli (N10); experiment: In vitro activity (MIC), agar dilution method; format: cell-based; details: Escherichia coli
Procedure: as §1, §2

[12] = system: H. influenzae (C.L.); experiment: In vitro activity (MIC), agar dilution method; format: cell-based; details: Haemophilus influenzae; H. influenzae (C.L.), agar dilution; read-out: MIC
Procedure: as §1, §2

[13] = system: H. influenzae (76); experiment: In vitro activity (MIC), agar dilution method; format: cell-based; details: Haemophilus influenzae; H. influenzae (76), agar dilution; read-out: MIC
Procedure: as §1, §2

[14] = system: Staph. epiderm. (270); experiment: In vitro activity (MIC), agar dilution method; format: cell-based; details: Staphylococcus epidermidis, methicillin-resistant strain
Procedure: as §1, §2

[15] = system: K. pneumonia (X68); experiment: In vitro activity (MIC), agar dilution method; format: cell-based; details: Klebsiella pneumoniae
Procedure: as §1, §2

[16] = system: other Gram(-) bacteria; experiment: In vitro activity (MIC), agar dilution method; format: cell-based
[17] = system: Staph. aureus (S13E); experiment: In vitro activity (MIC), agar dilution method; format: cell-based; details: Staphylococcus aureus
Procedure: as §1, §2

[18] = system: E. coli (TEM); experiment: In vitro activity (MIC), agar dilution method; format: cell-based; details: Escherichia coli
Procedure: as §1, §2

[19] = system: 33 strains of methicillin-resistant staphylococci; experiment: Geometric mean MICs against 33 strains of methicillin-resistant staphylococci; format: cell-based
Procedure: as §2
It is known that resistance to methicillin in staphylococci is often of the heterogeneous type and therefore not easily detected. […] (Goldstein, F. W.; Acar, J. J. Antimicrob. Chemother. […], 27, 549). […] J.; Drake T. A.; Rusnak, M. G.; Sande, M. A. J. Infect. Dis. 1984, 149, 894).

[20] = MICs against 4 strains of methicillin-resistant staphylococci; format: cell-based, Staphylococcus aureus and Staphylococcus epidermidis; details: Staphylococcus aureus, read-out: minimal inhibitory concentrations (MICs)
Procedure: as §1, §2

[21] = E. coli (EC14), agar dilution, read-out: MIC
[22] = K. pneumonia (KAE), agar dilution, read-out: MIC
[23] = E. coli (N10), agar dilution, read-out: MIC
[24] = K. pneumonia (X68), agar dilution, read-out: MIC

SMILES	MIC [1]	MIC [2]	MIC [3, 21]	MIC [4, 22]	MIC [5]	MIC [6]	MIC [7]	MIC [8]	MIC [9]	MIC [10]	MIC [11, 23]	MIC [12]	MIC [13]	MIC [14]	MIC [15, 24]	MIC [16]	MIC [17]	MIC [18]	MIC [3]	MIC [20]	further results
O=C(Cc1csc(-c2c(O)cccc2O)n1)N[C@@H]1C(=O)N2C(C(=O)O)=C(Cl)CS[C@H]12 [9f, [6R-[6A, 7B (R*)]]-3-Chloro-7-[[[2-(2,6-dihydroxyphenyl)-4-thiazolyl]acetyl]amino]-8-oxo-5-thia-1-azabicyclo[4.2.0]oct-2-ene-2-carboxylic Acid]	8 µg/mL (≈ 17.1 µM)	0.06 µg/mL (≈ 0.128 µM)	32 µg/mL (≈ 68.4 µM)	128 µg/mL (≈ 274 µM)	16 µg/mL (≈ 34.2 µM)	2 µg/mL (≈ 4.27 µM)	0.5 µg/mL (≈ 1.07 µM)	16 µg/mL (≈ 34.2 µM)	8 µg/mL (≈ 17.1 µM)	16 µg/mL (≈ 34.2 µM)	32 µg/mL (≈ 68.4 µM)	1 µg/mL (≈ 2.14 µM)	1 µg/mL (≈ 2.14 µM)	8 µg/mL (≈ 17.1 µM)	32 µg/mL (≈ 68.4 µM)	> 64 µg/mL					
CO/N=C(\C(=O)N[C@@H]1C(=O)N2C(C(=O)O)=C(COC(C)=O)CS[C@H]12)c1csc(N)n1 [Cefot, Cefotaxime, reference compound]	1 µg/mL (≈ 2.2 µM)	0.008 µg/mL (≈ 0.0176 µM)	0.015 µg/mL (≈ 0.0329 µM)	1 µg/mL (≈ 2.2 µM)	128 µg/mL (≈ 281 µM)	2 µg/mL (≈ 4.39 µM)	0.008 µg/mL (≈ 0.0176 µM)	2 µg/mL (≈ 4.39 µM)	128 µg/mL (≈ 281 µM)	1 µg/mL (≈ 2.2 µM)	0.06 µg/mL (≈ 0.132 µM)	0.008 µg/mL (≈ 0.0176 µM)	0.008 µg/mL (≈ 0.0176 µM)	8 µg/mL (≈ 17.6 µM)	0.015 µg/mL (≈ 0.0329 µM)		64 µg/mL (≈ 141 µM)	0.008 µg/mL (≈ 0.0176 µM)			
Cc1onc(-c2ccccc2)c1C(=O)N[C@@H]1C(=O)N2[C@@H]1SC(C)(C)[C@@H]2C(=O)O [Oxacillin, reference compound]																					MIC ([19]; read-out: Geometric mean MIC, MHA + 4% NaCl, 33 strains, 35° C.): 97 µg/mL; MIC ([19]; read-out: Geometric mean MIC, MHA, 33 strains): 49 µg/mL (≈ 122 µM)
CC(=O)OCC1=C(C(=O)O)N2C(=O)[C@@H](NC(=O)Cc3csc(-c4cccc(O)c4)n3)[C@H]2SC1 [9m, [6R-[6A,7B(R*)]]-3-[(Acetyloxy)methyl]-7-[[[2-(3-hydroxyphenyl)-4-thiazolyl]acetyl]amino]-8-oxo-5-thia-1-azabicyclo[4.2.0]oct-2-ene-2-carboxylic Acid]	16 µg/mL (≈ 32.7 µM)				16 µg/mL (≈ 32.7 µM)	0.25 µg/mL (≈ 0.511 µM)	4 µg/mL (≈ 8.17 µM)	1 µg/mL (≈ 2.04 µM)	32 µg/mL (≈ 65.4 µM)	0.25 µg/mL (≈ 0.511 µM)				1 µg/mL (≈ 2.04 µM)		> 64 µg/mL	8 µg/mL (≈ 16.3 µM)	128 µg/mL (≈ 261 µM)	128 µg/mL (≈ 261 µM)	≤ 16 µg/mL	MIC [4]: 128 µg/mL (≈ 261 µM); MIC [11]: 128 µg/mL (≈ 261 µM); MIC [15]: 128 µg/mL (≈ 261 µM)
COc1ccccc1-c1nc(CC(=O)N[C@@H]2C(=O)N3C(C(=O)O)=C(COC(C)=O)CS[C@H]23)cs1 [9o, [6R-[6A,7B(R*)]]-3-[(Acetyloxy)methyl]-7-[[[2-(2-methoxyphenyl)-4-thiazolyl]acetyl]amino]-8-oxo-5-thia-1-azabicyclo[4.2.0]oct-2-ene-2-carboxylic Acid]	8 µg/mL (≈ 15.9 µM)	0.015 µg/mL (≈ 0.0298 µM)			16 µg/mL (≈ 31.8 µM)	0.125 µg/mL (≈ 0.248 µM)	2 µg/mL (≈ 3.97 µM)	0.5 µg/mL (≈ 0.993 µM)	16 µg/mL (≈ 31.8 µM)	0.06 µg/mL (≈ 0.119 µM)		64 µg/mL (≈ 127 µM)	4 µg/mL (≈ 7.94 µM)	0.5 µg/mL (≈ 0.993 µM)		> 64 µg/mL	8 µg/mL (≈ 15.9 µM)	128 µg/mL (≈ 254 µM)	128 µg/mL (≈ 254 µM)	≤ 16 µg/mL	MIC [4]: 128 µg/mL (≈ 254 µM); MIC [11]: 128 µg/mL (≈ 254 µM); MIC [15]: 128 µg/mL (≈ 254 µM)
CC(=O)OCC1=C(C(=O)O)N2C(=O)[C@@H](NC(=O)Cc3csc(-c4ccccc4O)n3)[C@H]2SC1 [9a, [6R-[6A,7B(R*)]]-3-[(Acetyloxy)methyl]-7-[[[2-(2-hydroxyphenyl)-4-thiazolyl]acetyl]amino]-8-oxo-5-thia-1-azabicyclo[4.2.0]oct-2-ene-2-carboxylic Acid]	2 µg/mL (≈ 4.09 µM)	1 µg/mL (≈ 2.04 µM)			2 µg/mL (≈ 4.09 µM)	4 µg/mL (≈ 8.17 µM)	2 µg/mL (≈ 4.09 µM)	0.25 µg/mL (≈ 0.511 µM)	16 µg/mL (≈ 32.7 µM)	0.03 µg/mL (≈ 0.0613 µM)		8 µg/mL (≈ 16.3 µM)	0.5 µg/mL (≈ 1.02 µM)	0.125 µg/mL (≈ 0.255 µM)		> 64 µg/mL		128 µg/mL (≈ 261 µM)	128 µg/mL (≈ 261 µM)	≤ 16 µg/mL	MIC ([19]; MHA + 4% NaCl, 33 strains, 35° C., read-out: Geometric mean MIC): 2.4 µg/mL; MIC ([19]; MHA, 33 strains, read-out: Geometric mean MIC): 1.7 µg/mL (≈ 3.47 µM); MICs relative to clinically achievable concentrations for cephalosporins ([19]; in words, 4% NaCl): remained in the range usually considered to be clinically achievable concentrations for cephalosporins; change of MICs in the presence of NaCl ([19]; in words, 4% NaCl): only slightly elevated in the presence of NaCl; MIC [4]: 128 µg/mL (≈ 261 µM); MIC [11]: 128 µg/mL (≈ 261 µM); MIC [15]: 128 µg/mL (≈ 261 µM)
CC(=O)OCC1=C(C(=O)O)N2C(=O)[C@@H](NC(=O)Cc3csc(-c4c(O)cccc4O)n3)[C@H]2SC1 [9e, [6R-[6A,7B(R*)]]-3-[(Acetyloxy)methyl]-7-[[[2-(2,6-dihydroxyphenyl)-4-thiazolyl]acetyl]amino]-8-oxo-5-thia-1-azabicyclo[4.2.0]oct-2-ene-2-carboxylic Acid]	4 µg/mL (≈ 7.91 µM)	0.03 µg/mL (≈ 0.0593 µM)	16 µg/mL (≈ 31.6 µM)	128 µg/mL (≈ 253 µM)	16 µg/mL (≈ 31.6 µM)	0.5 µg/mL (≈ 0.989 µM)	0.5 µg/mL (≈ 0.989 µM)	16 µg/mL (≈ 31.6 µM)	4 µg/mL (≈ 7.91 µM)	8 µg/mL (≈ 15.8 µM)	64 µg/mL (≈ 127 µM)	4 µg/mL (≈ 7.91 µM)	4 µg/mL (≈ 7.91 µM)	4 µg/mL (≈ 7.91 µM)	16 µg/mL (≈ 31.6 µM)	> 64 µg/mL	4 µg/mL (≈ 7.91 µM)			≤ 16 µg/mL	
